SMILES strings stand for the structures.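 Tested at 5 concentrations; 48 h exposure; 96-well plates; endpoints linearly interpolated, else capped at highest concentration. The concentration for 50% growth inhibition is given as GI50.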 Active and inactive are the calls of the source. No stated cut-off is given here; in the data, active = GI50 up to about 1.1 µM and inactive = higher.

Test systems include UO-31; M14; A549; SK-MEL-5; OVCAR-3; HCT-15; HCC 2998; SK-OV-3; RPMI-8226; COLO 205; SK-MEL-28; UACC-62; SR; OVCAR-5; EKVX; MOLT-4; NCI-H460; KM12; Malme-3M.
Common to all, as to assay: inhibition of tumour cell growth, NCI panel, 48 h

Regarding `COC12C=CC(CC1)c1c(O)ccc(O)c12` (configuration not stated), the GI50 in the assay with UO-31 was > 80.7 µM (inactive); in the assay with M14 it was 57.7 µM (inactive); in the assay with A549 it was > 92.5 µM (inactive); in the assay on SK-MEL-5, 45 µM (inactive); with OVCAR-3, 21.8 µM (inactive); in the assay with HCT-15, 29.7 µM. For the same compound, the GI50 in the assay on HCC 2998 is 99.3 µM (inactive); with SK-OV-3 it was > 100 µM (inactive); with RPMI-8226, 50.8 µM (inactive); in the assay with COLO 205 it was 22.6 µM (inactive); with SK-MEL-28, 87.5 µM (inactive); in the assay with UACC-62 it was 27.3 µM (inactive). In addition, the GI50 in the assay on SR is 5.6 µM (inactive); in the assay on OVCAR-5, > 100 µM (inactive); with EKVX, > 66.2 µM (inactive); with MOLT-4 it was 22.8 µM (inactive); with NCI-H460 it was 52.8 µM (inactive); with KM12 it was > 95.1 µM (inactive). For the same compound, in the assay with Malme-3M, the GI50 was > 51.5 µM (inactive).
On to `C/C(=N\NC(N)=S)c1ccc(C)c(C)c1`, for which the GI50 with UO-31 was 52.1 µM (inactive); in the assay with M14, 41.7 µM (inactive); with A549, 65.8 µM (inactive); in the assay with SK-MEL-5, 69.2 µM (inactive); in the assay with OVCAR-3 it was 22.8 µM (inactive); in the assay with HCT-15, 58.5 µM. The GI50 is 51.6 µM (inactive) in the assay with HCC 2998; 75.7 µM (inactive) in the assay on SK-OV-3; 34.5 µM (inactive) with RPMI-8226; 26.9 µM (inactive) in the assay with COLO 205; > 100 µM (inactive) in the assay with SK-MEL-28; 28.4 µM (inactive) in the assay with UACC-62. Further, the GI50 was 68.9 µM (inactive) in the assay on SR; 29.1 µM (inactive) in the assay on OVCAR-5; 3.31 µM (inactive) in the assay on EKVX; 15.8 µM (inactive) with MOLT-4; 59.3 µM (inactive) in the assay on NCI-H460; 44.5 µM (inactive) in the assay with KM12. The GI50 in the assay with Malme-3M was 33.3 µM (inactive).
Regarding `N#CCCN(CCC#N)c1ccc(/C=C2\N=C(c3cc([N+](=O)[O-])ccc3Cl)OC2=O)cc1`, the GI50 with UO-31 was > 100 µM (inactive); in the assay on M14, 35.6 µM (inactive); with A549, > 100 µM (inactive); in the assay with SK-MEL-5 it was 16 µM (inactive); in the assay on OVCAR-3, 27.8 µM (inactive); with HCT-15, 53.2 µM. Besides, the GI50 in the assay with HCC 2998 was 21.6 µM (inactive); with SK-OV-3, > 100 µM (inactive); with RPMI-8226 it was 88.7 µM (inactive); in the assay on SK-MEL-28, 52.6 µM (inactive); with UACC-62, 62.4 µM (inactive); with SR, 33.3 µM (inactive). Besides, the GI50 is > 100 µM (inactive) in the assay on OVCAR-5; > 100 µM (inactive) in the assay with EKVX; 24.2 µM (inactive) in the assay on MOLT-4; 67.5 µM (inactive) in the assay with NCI-H460; 14.7 µM (inactive) in the assay with KM12; > 100 µM (inactive) in the assay on Malme-3M.
`C=CC/N=C1\N=C(C)C(C(=O)OCC)S1` (configuration not stated): the GI50 in the assay with UO-31 is > 100 µM (inactive); in the assay with M14, > 100 µM (inactive); in the assay with A549, > 100 µM (inactive); in the assay on SK-MEL-5, > 100 µM (inactive); in the assay with OVCAR-3 it was > 100 µM (inactive); in the assay with HCT-15, over 100 µM. In addition, the GI50 in the assay with HCC 2998, with SK-OV-3, in the assay with RPMI-8226, in the assay with COLO 205, in the assay on SK-MEL-28 and with UACC-62 was > 100 µM (inactive) in each case. The GI50 in the assay on SR, in the assay on OVCAR-5, in the assay on EKVX, in the assay on MOLT-4, in the assay on NCI-H460 and with KM12 was > 100 µM (inactive) in each case. Moreover, the GI50 in the assay on Malme-3M is > 100 µM (inactive).
On to `CC1(C)CC(/C=C2/OC(=O)c3ccccc32)=C(C#N)C(=O)O1`, for which the GI50 with UO-31 was > 100 µM (inactive); with M14 it was > 100 µM (inactive); in the assay on A549 it was > 100 µM (inactive); in the assay on SK-MEL-5 it was > 100 µM (inactive); with OVCAR-3 it was > 100 µM (inactive); in the assay on HCT-15 it was over 100 µM. Moreover, the GI50 with HCC 2998 was 0.294 µM (active); with SK-OV-3, > 100 µM (inactive); with RPMI-8226, > 100 µM (inactive); in the assay with COLO 205, > 100 µM (inactive); with SK-MEL-28, > 100 µM (inactive); in the assay with UACC-62 it was > 100 µM (inactive). In addition, the GI50 in the assay with SR, in the assay on OVCAR-5, with EKVX, in the assay on MOLT-4, with NCI-H460 and in the assay on KM12 was > 100 µM (inactive) throughout. Besides, the GI50 with Malme-3M was > 100 µM (inactive).
As to `O=C1CCCc2ccc3c(c21)CC1(Cc2cc4c(cc2C1)CCCC4)C3`, the GI50 was 15.7 µM (inactive) with UO-31; 16.9 µM (inactive) in the assay with M14; 22 µM (inactive) in the assay with A549; 12.6 µM (inactive) in the assay on SK-MEL-5; 20.1 µM (inactive) in the assay on OVCAR-3; 19.4 µM in the assay on HCT-15. For the same compound, the GI50 in the assay on HCC 2998 was 42.9 µM (inactive); in the assay on SK-OV-3, 43.9 µM (inactive); in the assay with RPMI-8226 it was 10.2 µM (inactive); in the assay with COLO 205, 14.8 µM (inactive); with SK-MEL-28 it was 24.9 µM (inactive); in the assay with UACC-62, 20.3 µM (inactive). For the same compound, the GI50 was 6.98 µM (inactive) in the assay with SR; 27.4 µM (inactive) with OVCAR-5; 21.1 µM (inactive) in the assay with EKVX; 14.8 µM (inactive) with MOLT-4; 22.8 µM (inactive) in the assay on NCI-H460; 22.2 µM (inactive) with KM12. In addition, the GI50 in the assay with Malme-3M is 18.3 µM (inactive).
With `CC(C)(c1ccc(Oc2ccc(C#N)c(C#N)c2)cc1)c1ccc(Oc2ccc(C#N)c(C#N)c2)cc1`, the GI50 was 3.58 µM (inactive) with UO-31; > 10 µM (inactive) in the assay on M14; > 10 µM (inactive) in the assay with A549; > 10 µM (inactive) in the assay on SK-MEL-5; > 10 µM (inactive) with OVCAR-3; over 10 µM with HCT-15. For the same compound, the GI50 with HCC 2998, in the assay on SK-OV-3, with RPMI-8226, with COLO 205, in the assay on SK-MEL-28 and in the assay on UACC-62 was > 10 µM (inactive) in each case. The GI50 in the assay with SR, in the assay on OVCAR-5, in the assay with EKVX, with MOLT-4, in the assay on NCI-H460 and in the assay on KM12 was > 10 µM (inactive) each time. Besides, the GI50 in the assay with Malme-3M is > 10 µM (inactive).
Regarding `CC/C(CC(=O)CCC(=O)Nc1ccccc1[N+](=O)[O-])=N/NC(=O)C[n+]1ccccc1`, the GI50 with UO-31 was > 100 µM (inactive); in the assay on M14 it was > 100 µM (inactive); in the assay on A549 it was > 100 µM (inactive); in the assay on SK-MEL-5 it was > 100 µM (inactive); with OVCAR-3, > 100 µM (inactive); with HCT-15 it was over 100 µM. The GI50 with HCC 2998, in the assay on SK-OV-3, in the assay with RPMI-8226, in the assay on COLO 205, in the assay with SK-MEL-28 and with UACC-62 was > 100 µM (inactive) throughout. Moreover, the GI50 in the assay with SR, in the assay on OVCAR-5, in the assay with EKVX, in the assay with MOLT-4, in the assay with NCI-H460 and in the assay on KM12 was > 100 µM (inactive) each time. Further, in the assay on Malme-3M, the GI50 was > 100 µM (inactive).
On to `O=c1[nH]nc(-c2ccccc2)n1Nc1ccccc1`, for which the GI50 in the assay with UO-31 was > 100 µM (inactive); in the assay with M14, > 100 µM (inactive); in the assay with A549, > 100 µM (inactive); in the assay on SK-MEL-5, > 100 µM (inactive); with OVCAR-3 it was > 100 µM (inactive); in the assay with HCT-15 it was over 100 µM. The GI50 in the assay on HCC 2998, with SK-OV-3, with RPMI-8226, in the assay on COLO 205, in the assay on SK-MEL-28 and with UACC-62 was > 100 µM (inactive) in each case. The GI50 with SR, in the assay on OVCAR-5, with EKVX, with MOLT-4, in the assay with NCI-H460 and with KM12 was > 100 µM (inactive) throughout. Besides, the GI50 in the assay on Malme-3M was > 100 µM (inactive).
On to `NC(=S)N/N=C/c1nccc2ccccc12`, for which the GI50 is 0.443 µM (active) in the assay with UO-31; 0.482 µM (active) in the assay on M14; 0.409 µM (active) in the assay on A549; 0.467 µM (active) in the assay on SK-MEL-5; 0.307 µM (active) with OVCAR-3; 0.975 µM in the assay with HCT-15. For the same compound, the GI50 was 0.664 µM (active) in the assay on HCC 2998; 0.594 µM (active) in the assay on SK-OV-3; 1.22 µM (inactive) with RPMI-8226; 0.957 µM (active) in the assay on COLO 205; 2.37 µM (inactive) in the assay with SK-MEL-28; 0.281 µM (active) with UACC-62. For the same compound, the GI50 with SR was 0.664 µM (active); with OVCAR-5 it was 0.685 µM (active); with MOLT-4, 0.461 µM (active); in the assay on NCI-H460 it was 0.415 µM (active); in the assay with KM12 it was 0.873 µM (active); in the assay on Malme-3M it was 0.0337 µM (active).
Consider `CC1=CP(=O)(OC(C)C)C=C(C)C1=C(Cl)Cl` (configuration not stated), for which the GI50 with UO-31 was 13.1 µM (inactive); in the assay on M14, 59.6 µM (inactive); in the assay on A549, 26.4 µM (inactive); in the assay with SK-MEL-5 it was 30.8 µM (inactive); with OVCAR-3 it was > 100 µM (inactive); in the assay on HCT-15 it was 46 µM. Moreover, the GI50 is > 100 µM (inactive) with HCC 2998; 17.4 µM (inactive) in the assay with SK-OV-3; 32.7 µM (inactive) with RPMI-8226; 18.2 µM (inactive) in the assay with COLO 205; 63.5 µM (inactive) in the assay on SK-MEL-28; 32.6 µM (inactive) in the assay on UACC-62. Moreover, the GI50 with SR is 35.5 µM (inactive); in the assay with OVCAR-5, > 100 µM (inactive); in the assay on EKVX, > 100 µM (inactive); with MOLT-4 it was 57.4 µM (inactive); with NCI-H460, 68.2 µM (inactive); in the assay with KM12, 22.5 µM (inactive). In addition, the GI50 with Malme-3M was > 100 µM (inactive).

These data come from ChEMBL document CHEMBL1201862, “PubChem BioAssay data set” (2004).
